Reference: patent US12427151B2, “Compositions and method of treating cancer” (The Regents of the University of California, priority 2017, dated 2025)
Converted amounts (≈) assume the structure as drawn.

Key:
S. hominis ATCC27844 = assay: MBC determination; type: cell-based; conditions: Staphylococcus hominis, 3-log reduction, 24 hour, 37° C., half strength MHB in PBS
Experimental: (§1) To determine MBC, bacteria were cultured in TSB (Staphylococcus), THB (Streptococcus) or Nutrient broth (P. aeruginosa and E. coli) by reaching exponential phase (OD600=0.5-0.8). […] After incubation, the number of viable bacteria was measured by counting CFU after spreading 10-fold serial dilutions of bacteria on suitable agar plates. MBC was determined as a 3-log reduction (99.9%) of viable bacteria after 24 hour incubation.
(§2) Antimicrobial activity of 6-HAP in vitro. To examine the specificity of 6-HAP for various bacteria, minimal bactericidal concentrations (MBCs) were determined according to dose-dependent killing curves at 24 hrs of incubation in vitro (Table 1). 6-HAP killed or suppressed growth of several major skin pathogens including GAS (NZ131), group B Streptococcus (GBS) (DK23), methicillin-sensitive S. aureus (ATCC35556), methicillin-resistant S. aureus (MRSA) strains (USA300 and Sanger252), Pseudomonas aeruginosa (P. aeruginosa) (ATCC14213) in vitro. […] S. epidermidis (ATCC12228) was also resistant to 6-HAP.

S. epidermidis ATCC12228 = assay: MBC determination; type: cell-based; conditions: Staphylococcus epidermidis, 3-log reduction, 24 hour, 37° C., half strength MHB in PBS
Experimental: as §1, §2

S. aureus ATCC35556 = assay: MBC determination; type: cell-based; conditions: Staphylococcus aureus, 3-log reduction, 24 hour, 37° C., half strength MHB in PBS
Experimental: as §1, §2

P. aeruginosa ATCC14213 = assay: MBC determination; type: cell-based; conditions: Pseudomonas aeruginosa, 3-log reduction, 24 hour, 37° C., half strength MHB in PBS
Experimental: as §1, §2

E. coli ATCC25922 = assay: MBC determination; type: cell-based; conditions: Escherichia coli, 3-log reduction, 24 hour, 37° C., half strength MHB in PBS
Experimental: as §1, §2

GAS = assay: Subcutaneous GAS deep skin infection in mice; type: in vivo, C57BL6 mouse; conditions: single intravenous injection 20 mg/kg after GAS inoculation
Experimental: (§3) (a-c) Effect of a single intravascular injection of 6-HAP on skin infection by GAS. The size of the infected lesion was measured by Image-J software (a). Representative images of infected skin (arrow) of mouse treated with 6-HAP or vehicle at Day-1 and Day-3 post infection are shown in (b). Infected skin was removed 24 and 72 hrs after bacterial injection and homogenized in PBS (c). CFUs were enumerated by plating serial dilutions of the homogenate on an agar plate. The data represent mean±SE of eight individual experiments (*P<0.05 and **P<0.01 by Student's t-test vs vehicle control). (d-e) Effect of repeated intravascular administrations with 6-HAP on growth of melanoma in mice. The data represent mean±SE of 10 individual experiments (*P<0.05, **P<0.01 and ***P<0.001 by Student's t-test vs vehicle control) (d). Representative images of tumor (broken line) in mouse treated with 6-HAP or vehicle at Day-9 and Day-13 are shown in (e).
For subcutaneous infection, mouse dorsal skin was subcutaneously injected with GAS (1×10^7 CFU/50 μL in PBS) by 31 G needle. […] Wound development was monitored everyday by taking photographs along with a wound ruler and lesion size was measured with ImageJ ([http://]rsbweb.nih.gov/ij/)(hyperlink disabled by brackets). […]

B16F10 melanoma = assay: In vivo tumor growth assay; design: species or system C57BL6 mice; conditions: intravenous 20 mg/kg every 48 hrs for 2 weeks
Experimental: as §3
In vivo tumor growth assay. B16F10 were suspended in sterile PBS. Shaved mouse dorsal skin was intradermally injected with 3×10^5 cells/50 μL. The C57BL6 mice were subsequently injected with 6-HAP dissolved in 2.5% DMSO/0.9% NaCl solution (40 mg/mL) at the dose of 20 mg/kg mouse via intravascular route every 48 hrs for 2 weeks. […] Tumor size was measured as the two perpendicular diameters with a caliper and volume was estimated by a formula, width^2×length/2. […]

GAS (NZ131) = assay: Radial diffusion assay against GAS; type: cell-based, group A streptococcus; conditions: fraction purified from MO34 conditioned media
Text: (a) Screening for antimicrobial activity of culture supernatant from 44 strains of S. epidermidis strains isolated from normal human skin by radial diffusion assay against group A streptococcus (GAS). Data represent diameter of growth inhibition zone of conditioned media of each strain. UD=undetectable. (b) Elution profile of the antimicrobial compound purified from culture supernatant of S. epidermidis MO34 by HPLC using a PolyHYDROXYMETHYL. The last step of 5 purification steps is shown. The insert panel represents antimicrobial activity of each fraction on radial diffusion assay against GAS. Green line represents a gradient of H2O in acetonitrile. […] Antimicrobial activity against GAS was determined by radial diffusion assay. […]
S. epidermidis strains from human skin produce non-proteinaceous antibiotic. To screen for commensal skin bacteria producing antimicrobial activity, 44 strains of S. epidermidis from clinical isolates of normal human skin were cultured overnight and the antimicrobial activity produced by each isolate was determined by radial diffusion assay of their conditioned media against GAS (FIG. 1a). […]

What does the source list for `ONc1ncnc2nc[nH]c12` [6-HAP, 6-N-hydroxyaminopurine]?
MBC (S. hominis ATCC27844): 12.5 µg/mL (≈ 82.7 µM); MBC (S. epidermidis ATCC12228): > 50 µg/mL; MBC (S. aureus ATCC35556): 6.25 µg/mL (≈ 41.4 µM); MBC (P. aeruginosa ATCC14213): 1.56 µg/mL (≈ 10.3 µM); MBC (E. coli ATCC25922): 50 µg/mL (≈ 331 µM); GAS survival in infected skin (GAS): significantly suppressed; clinical lesion size (GAS): significantly suppressed; tumor size suppression compared to vehicle (B16F10 melanoma): > 60%; zones of inhibition of GAS growth by purified fraction (GAS (NZ131)): strong zones of inhibition
